According to patent US8716012B2, “Alpha thymosin peptides as vaccine enhancers” (priority 2009, dated 2014):

Key:
[1] = Safety and tolerability observations in ferrets; format: in vivo; conditions: TA1 0.285 or 0.570 mg/kg/dose s.c.
Protocol: The vaccine (either Agrippal influPozzi seasonal vaccine, non-adjuvanted, or Fluad, MF-59 adjuvanted) was administered via intramuscular injection to the right leg at a full human dose of 0.5 mL. TA1 (0.285 or 0.570 mg/kg/dose) was administered by the subcutaneous route at a dose volume that, using a scaling factor for ferret/human dosing, corresponding to approximate human doses of […]. Animals were observed twice daily for mortality, general health, and both local and systemic signs of toxicity and illness as well as behavior under the responsibility of a professional veterinarian. Body weights were recorded prior to dosing only.

[2] = doses as high as 800 times the recommended human dose; cited from earlier work
[3] = more than 3,000 patients (adults, elderly, children); cited from earlier work
[4] = CD-1 mice; TA1 0.3, 0.6 or 1.2 mg/kg/dose i.p. with Fluvirin
[5] = cited from earlier work

In the case of “Ac-SDAAVDTSSEITTKDLKEKKEVVEEAEN-OH [TA1]”, the cage-side observations [1] is listed as “no cage-side observations were noted”, the safety and tolerability [1] is listed as “safe and well-tolerated” and the “adverse clinical signs in animal studies” value [2] is listed as “no evidence of adverse clinical signs”. For the same substance, the “drug-related side effects in clinical studies” value [3] was “virtually no drug-related side effects”, the “clinical/cageside observations or body weight effects” value [4] was “no test article-related clinical/cageside observations or body weight effects” and the survival [4] was “All animals survived until scheduled termination”. The Peak plasma levels ([5]; after injection of 3.2 mg of TA1 (about 40 μg/kg)) was “approximately 100 ng/ml”, the “half-life of TA1 in the circulation” value ([5]; in vivo) was “about 2 hours” and the plasma half-life ([5]; subcutaneously injected TA1) was “about two”.
